System: 3′TAR and 5′TAR microRNA
Experiment: Poly-A RT-PCR of TAR microRNA in ACH2 cells
Format: cell-based, HIV-1
Conditions: CR8#13 100 nm, 48 hrs
Procedure: RNA was extracted 48 hrs-post drug treatment. 500 ng of RNA from the microRNA-enriched fraction was used to generate cDNA using the Quantimir kit (SBI). RT reactions are performed followed by PCR in which a universal reverse primer is provided by the manufacturer. Specific microRNA forward primers are identical in sequence to the microRNA of interest. PCR products corresponding to the amplified microRNAs were resolved in a 3.5% (w/v) agarose gel. The PCR products are at around 67 bp as compared with the Fermentas 1 kb DNA Plus Ladder. Increased amounts of 3′ and 5′ TAR microRNA were observed post drug treatment.
For poly-A RT-PCR detection of microRNAs, 500 ng of RNA from the microRNA-enriched fraction was used to generate cDNA using the Quantimir kit (SBI) according to the manufacturer's protocol. Briefly, small RNA species are poly-adenylated and then reverse transcription reactions are performed with a company-provided RT primer. For PCR, a universal reverse primer is provided by the manufacturer. Specific microRNA forward primers are identical in sequence to the microRNA of interest. PCR products corresponding to the amplified microRNAs were separated in a 3.5% (w/v) agarose gel and quantified using the Kodak 1D software. […]

## CC(C)c1cnn2c(NCc3ccc(-c4ccccn4)cc3)nc(NC[C@H](O)CO)nc12.O=C(O)/C=C/C(=O)O [BJFP1154]
  5′TAR microRNA levels: increase in the 5′TAR microRNA levels

Reference: patent publication US20120149708A1, “MODULATORS OF VIRAL TRANSCRIPTION, AND METHODS AND COMPOSITIONS THEREWITH” (George Mason University, priority 2010, published 2012)
